Source: patent US20240208912A1 (Mirati Therapeutics, Inc., priority 2021, published 2024)
pIC50: −log10 of the molar value. Where two headings read alike, the source gives them in different places.

Tests used:
PRMT5/MEP50 complex = molecular target: T1, PRMT5/MEP50 complex (Homo sapiens, UniProt O14744); assay: PRMT5:MEP50 HotSpot Assay (full-length histone H2A substrate, plus and minus MTA); assay type: biochemical; settings: IC50 + 2 μM MTA, in the presence of 2 μM MTA
T1 construct: purchased Reaction Biology Corporation
T1 sequence (O14744 2-637 limits assumed): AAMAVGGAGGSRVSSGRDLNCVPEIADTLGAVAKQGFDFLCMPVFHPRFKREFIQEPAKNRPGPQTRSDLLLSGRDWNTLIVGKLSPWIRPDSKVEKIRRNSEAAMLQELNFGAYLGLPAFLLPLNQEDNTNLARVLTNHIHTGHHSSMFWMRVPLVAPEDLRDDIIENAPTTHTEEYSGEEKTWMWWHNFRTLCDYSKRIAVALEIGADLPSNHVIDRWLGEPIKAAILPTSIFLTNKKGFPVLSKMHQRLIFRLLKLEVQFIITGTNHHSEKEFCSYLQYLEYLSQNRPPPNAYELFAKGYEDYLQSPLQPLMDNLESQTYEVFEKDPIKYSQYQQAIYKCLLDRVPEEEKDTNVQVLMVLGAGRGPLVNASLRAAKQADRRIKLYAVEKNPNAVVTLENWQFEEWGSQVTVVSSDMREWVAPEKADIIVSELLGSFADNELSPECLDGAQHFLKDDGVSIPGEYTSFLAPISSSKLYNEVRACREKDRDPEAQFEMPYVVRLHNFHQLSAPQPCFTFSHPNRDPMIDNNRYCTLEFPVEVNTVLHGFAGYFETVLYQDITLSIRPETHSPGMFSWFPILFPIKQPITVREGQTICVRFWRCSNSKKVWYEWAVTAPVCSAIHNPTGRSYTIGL
T1 sequence (Q9BQA1 2-342 partner limits assumed): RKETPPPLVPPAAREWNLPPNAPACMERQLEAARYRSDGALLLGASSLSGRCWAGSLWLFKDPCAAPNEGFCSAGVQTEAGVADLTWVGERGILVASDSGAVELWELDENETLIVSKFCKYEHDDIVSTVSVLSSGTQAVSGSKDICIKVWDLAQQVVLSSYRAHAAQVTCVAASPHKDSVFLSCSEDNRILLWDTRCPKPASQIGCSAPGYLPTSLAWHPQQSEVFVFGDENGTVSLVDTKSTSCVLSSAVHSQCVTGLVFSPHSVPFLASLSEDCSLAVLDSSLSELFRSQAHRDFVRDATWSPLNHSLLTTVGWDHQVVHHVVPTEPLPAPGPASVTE
Outline: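 Tritiated product on full-length recombinant H2A was counted by scintillation after the stopped reaction was captured on filter paper. Substrate is histone H2A; conditions include plus and minus MTA.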

[1] = test system: HCT116 homozygous MTAP knockout cells; assay: Proliferation assay (CellTiter-Glo, 10 days) in HCT116 homozygous MTAP knockout cells; assay type: cell-based; settings: CellTiter-Glo after 10 days of treatment, read-out: Proliferation IC50 (nM) HCT116 MTAP_KO
Outline: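 CellTiter-Glo viability read on day 11 gives a 10-day IC50. Dosing began one day after seeding, with a 1:10 split into fresh drug-containing medium on day 6. Cells are HCT116 lacking both MTAP alleles via CRISPR/Cas9, run alongside the parental line.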

Compound | pIC50 (PRMT5/MEP50 complex) | IC50 [1] [nM] | IC50 ([1]; Homo sapiens, HCT-116, 240 h) [nM]
Cc1c(F)c(-c2c(-c3cc(Cl)c4c(=O)[nH]nc(CN)c4c3)cnn2C)c(C#N)c2ccccc12 (single isomer, unassigned) [Example 16-60, (M)-2-[4-[4-(aminomethyl)-8-chloro-1-oxo-2H-phthalazin-6-yl]-2-methyl-pyrazol-3-yl]-3-fluoro-4-methyl-naphthalene-1-carbonitrile] | 7.83 | 39 | 
Cn1ncc(-c2cc(Cl)c3c(=O)[nH]nc(CN)c3c2)c1-c1c(F)cc2ncc(Cl)cc2c1C#N (single isomer, unassigned) [Example 16-61, (P)-6-[4-[4-(aminomethyl)-8-chloro-1-oxo-2H-phthalazin-6-yl]-2-methyl-pyrazol-3-yl]-3-chloro-7-fluoro-quinoline-5-carbonitrile] | 6.66 | 80 | 
Cn1ncc(-c2cc(Cl)c3c(=O)[nH]nc(CN)c3c2)c1-c1c(F)cc2ncc(Cl)cc2c1C#N (single isomer, unassigned) [Example 16-62, (M)-6-[4-[4-(aminomethyl)-8-chloro-1-oxo-2H-phthalazin-6-yl]-2-methyl-pyrazol-3-yl]-3-chloro-7-fluoro-quinoline-5-carbonitrile] | 7.54 | 7 | 
CCOc1cc(-c2cnn(C)c2-c2c(F)c(C)cc(OC3CC3)c2C#N)cc2c(CN)n[nH]c(=O)c12 (single isomer, unassigned) [Example 16-75, (P)-2-[4-[4-(aminomethyl)-8-ethoxy-1-oxo-2H-phthalazin-6-yl]-2-methyl-pyrazol-3-yl]-6-(cyclopropoxy)-3-fluoro-4-methyl-benzonitrile] | 5.30 | 420 | 
CCOc1cc(-c2cnn(C)c2-c2c(F)c(C)cc(OC3CC3)c2C#N)cc2c(CN)n[nH]c(=O)c12 (single isomer, unassigned) [Example 16-76, (M)-2-[4-[4-(aminomethyl)-8-ethoxy-1-oxo-2H-phthalazin-6-yl]-2-methyl-pyrazol-3-yl]-6-(cyclopropoxy)-3-fluoro-4-methyl-benzonitrile] | 6.95 | 41 | 
CCOc1cc(-c2cnn(C)c2-c2c(F)c(Cl)cc(OC3CC3)c2C#N)cc2c(CN)n[nH]c(=O)c12 (single isomer, unassigned) [Example 16-77, (P)-2-[4-[4-(aminomethyl)-8-ethoxy-1-oxo-2H-phthalazin-6-yl]-2-methyl-pyrazol-3-yl]-4-chloro-6-(cyclopropoxy)-3-fluoro-benzonitrile] | 5.39 | 264 | 
CCOc1cc(-c2cnn(C)c2-c2c(F)c(Cl)cc(OC3CC3)c2C#N)cc2c(CN)n[nH]c(=O)c12 (single isomer, unassigned) [Example 16-78, (M)-2-[4-[4-(aminomethyl)-8-ethoxy-1-oxo-2H-phthalazin-6-yl]-2-methyl-pyrazol-3-yl]-4-chloro-6-(cyclopropoxy)-3-fluoro-benzonitrile] | 6.86 | 17 | 
CCOc1cc(-c2cnn(C)c2-c2c(F)c(Cl)c3ccccc3c2C#N)cc2c(CN)n[nH]c(=O)c12 (single isomer, unassigned) [Example 16-79, (P)-2-[4-[4-(aminomethyl)-8-ethoxy-1-oxo-2H-phthalazin-6-yl]-2-methyl-pyrazol-3-yl]-4-chloro-3-fluoro-naphthalene-1-carbonitrile] | 8.08 | 33 | 
CCOc1cc(-c2cnn(C)c2-c2c(F)c(Cl)c3ccccc3c2C#N)cc2c(CN)n[nH]c(=O)c12 (single isomer, unassigned) [Example 16-80, (M)-2-[4-[4-(aminomethyl)-8-ethoxy-1-oxo-2H-phthalazin-6-yl]-2-methyl-pyrazol-3-yl]-4-chloro-3-fluoro-naphthalene-1-carbonitrile] | 6.38 | 13 | 
CCOc1cc(-c2cnn(C)c2-c2c(F)c(C)c3ccccc3c2C#N)cc2c(CN)n[nH]c(=O)c12 (single isomer, unassigned) [Example 16-81, (P)-2-[4-[4-(aminomethyl)-8-ethoxy-1-oxo-2H-phthalazin-6-yl]-2-methyl-pyrazol-3-yl]-3-fluoro-4-methyl-naphthalene-1-carbonitrile] | 7.38 |  | 9
CCOc1cc(-c2cnn(C)c2-c2c(F)c(C)c3ccccc3c2C#N)cc2c(CN)n[nH]c(=O)c12 (single isomer, unassigned) [Example 16-82, (M)-2-[4-[4-(aminomethyl)-8-ethoxy-1-oxo-2H-phthalazin-6-yl]-2-methyl-pyrazol-3-yl]-3-fluoro-4-methyl-naphthalene-1-carbonitrile] | 5.93 | 14 | 
Cn1ncc(-c2ccc3c(=O)[nH]nc(CN)c3c2)c1-c1c(C#N)cc2ncccc2c1F (single isomer, unassigned) [Example 16-91, (P)-6-[4-[4-(aminomethyl)-1-oxo-2H-phthalazin-6-yl]-2-methyl-pyrazol-3-yl]-5-fluoro-quinoline-7-carbonitrile] | 6.34 | 2670 | 
Cn1ncc(-c2ccc3c(=O)[nH]nc(CN)c3c2)c1-c1c(C#N)cc2ncccc2c1F (single isomer, unassigned) [Example 16-92, (M)-6-[4-[4-(aminomethyl)-1-oxo-2H-phthalazin-6-yl]-2-methyl-pyrazol-3-yl]-5-fluoro-quinoline-7-carbonitrile] | 5.69 | 403 | 
Cc1c(F)c(-c2c(-c3cc(C)c4c(=O)[nH]nc(CN)c4c3)cnn2C)c(C#N)c2ncc(Cl)cc12 (single isomer, unassigned) [Example 16-95, (P)-7-(4-(4-(aminomethyl)-8-methyl-1-oxo-1,2-dihydrophthalazin-6-yl)-1-methyl-1H-pyrazol-5-yl)-3-chloro-6-fluoro-5-methylquinoline-8-carbonitrile] | 6.10 |  | 1230
CCOc1cc(-c2cnn(C)c2-c2c(F)c(C)c3cc(Cl)cnc3c2C#N)cc2c(CN)n[nH]c(=O)c12 (single isomer, unassigned) [Example 16-99, (P)-7-(4-(4-(aminomethyl)-8-ethoxy-1-oxo-1,2-dihydrophthalazin-6-yl)-1-methyl-1H-pyrazol-5-yl)-3-chloro-6-fluoro-5-methylquinoline-8-carbonitrile] | 5.01 |  | 10000
COc1cccc2c(C#N)c(-c3c(-c4ccc5c(=O)[nH]nc(CN)c5c4)cnn3C)sc12 [Example 4-268, 2-[4-[4-(aminomethyl)-1-oxo-2H-phthalazin-6-yl]-2-methyl-pyrazol-3-yl]-7-methoxy-benzothiophene-3-carbonitrile] | 6.78 |  | 201

The next lines start with the values.

pIC50 (PRMT5/MEP50 complex) | IC50 [1] [nM] | IC50 ([1]; Homo sapiens, HCT-116, 240 h) [nM] | Compound
6.57 | 241 |  | C[C@H]1C[C@@H]1Oc1ccc(F)c(-c2c(-c3ccc4c(=O)[nH]nc(CN)c4c3)cnn2C)c1C#N (single isomer, unassigned) [Example 16-67]
7.28 | 41 |  | C[C@H]1C[C@@H]1Oc1ccc(F)c(-c2c(-c3ccc4c(=O)[nH]nc(CN)c4c3)cnn2C)c1C#N (single isomer, unassigned) [Example 16-68]
5.18 | 10200 |  | Cn1ncc(-c2ccc3c(=O)[nH]nc(CN)c3c2)c1-c1c(C#N)ccc2c1COC2 (single isomer, unassigned) [Example 16-69, (M)-4-[4-[4-(aminomethyl)-1-oxo-2H-phthalazin-6-yl]-2-methyl-pyrazol-3-yl]-1,3-dihydroisobenzofuran-5-carbonitrile]
6.27 | 462 |  | Cn1ncc(-c2ccc3c(=O)[nH]nc(CN)c3c2)c1-c1c(C#N)ccc2c1COC2 (single isomer, unassigned) [Example 16-70, (P)-4-[4-[4-(aminomethyl)-1-oxo-2H-phthalazin-6-yl]-2-methyl-pyrazol-3-yl]-1,3-dihydroisobenzofuran-5-carbonitrile]
5.87 | 514 |  | Cn1ncc(-c2ccc3c(=O)[nH]nc(CN)c3c2)c1-c1c(F)cc2c(c1C#N)OCCO2 (single isomer, unassigned) [Example 16-89, (P)-6-[4-[4-(aminomethyl)-1-oxo-2H-phthalazin-6-yl]-2-methyl-pyrazol-3-yl]-7-fluoro-2,3-dihydro-1,4-benzodioxine-5-carbonitrile]
6.61 | 138 |  | Cn1ncc(-c2ccc3c(=O)[nH]nc(CN)c3c2)c1-c1c(F)cc2c(c1C#N)OCCO2 (single isomer, unassigned) [Example 16-90, (M)-6-[4-[4-(aminomethyl)-1-oxo-2H-phthalazin-6-yl]-2-methyl-pyrazol-3-yl]-7-fluoro-2,3-dihydro-1,4-benzodioxine-5-carbonitrile]
6.26 |  | 618 | Cc1cc(-c2c(-c3ccc4c(=O)[nH]nc(CN)c4c3)cnn2C)n2c1CCCC2=O [Example 4-257, 4-(aminomethyl)-6-[1-methyl-5-(1-methyl-5-oxo-7,8-dihydro-6H-indolizin-3-yl)pyrazol-4-yl]-2H-phthalazin-1-one]
6.24 |  | 2680 | Cn1ncc(-c2ccc3c(=O)[nH]nc(CN)c3c2)c1-c1ccc2n1C(=O)CC2 [Example 4-260, 4-(aminomethyl)-6-[1-methyl-5-(5-oxo-6,7-dihydropyrrolizin-3-yl)pyrazol-4-yl]-2H-phthalazin-1-one]
6.92 |  | 132 | Cn1ncc(-c2ccc3c(=O)[nH]nc(CN)c3c2)c1-c1sc2ncc(Cl)cc2c1C#N [Example 4-263, 2-[4-[4-(aminomethyl)-1-oxo-2H-phthalazin-6-yl]-2-methyl-pyrazol-3-yl]-5-chloro-thieno[2,3-b]pyridine-3-carbonitrile]
